{"source": "patent US20210322447A1", "about": "“T[…]-DOSING DELIVERY OF PSYCHEDELICS DERIVATIVES” (PIKE THERAPEUTICS, INC., priority 2020, published 2021)", "origin": "cited, not measured here", "key": {"[1]": {"system": "serotonin receptors in the brain", "settings": "once ingested; typical duration"}, "central nervous system": {"system": "central nervous system", "settings": "cited from Nelson and Foltz, Anal. Chem. 64, 1578-1585, 1992"}}}
{"smiles": "CN(C)CCc1c[nH]c2cccc(OP(=O)(O)O)c12", "note": "[psilocybin, [3-(2-dimethylaminoethyl)-1H-indol-4-yl] dihydrogen phosphate]", "values": [{"measurement": "duration of mind-altering effects", "setting": "[1]", "result": "two to six"}]}
{"smiles": "CCN(CC)C(=O)[C@@H]1C=C2c3cccc4[nH]cc(c34)C[C@H]2N(C)C1", "note": "[LSD, 9,10-didehydro-N,N-diethyl-6-methylergoline-80-carboxamide]", "values": [{"measurement": "concentration sufficient to induce hallucination", "setting": "central nervous system", "result": "20 to 80", "unit": "µg"}]}
